Assay: Anticancer human tumor 997537-175-T-J1-PDC patient-derived colon adenocarcinoma cell line growth inhibition [POLQ]
Conditions: 997537-175-T-J1-PDC complex spheroid viability, combination with POLQ inhibitors; for IC50: curve of first compound; for viability, T/C: stronger effect = lower value
Procedure, shortened: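 Complex spheroid viability model combining PDC tumour cells with endothelial (HUVEC) and MSC stromal cells. Novobiocin, ART-558 or RP6685 were tested singly and in combination with standard and investigational anticancer drugs. Each was titrated in half-log steps from near clinical Cmax, or from 10 microM where Cmax was unknown.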

[1] = second compound 0.0316 µM, first compound 0.0316 µM
[2] = second compound 0.0316 µM, first compound 0.1 µM
[3] = second compound 0.0316 µM, first compound 0.316 µM
[4] = second compound 0.0316 µM, first compound 1 µM
[5] = second compound 0.0316 µM, first compound 3.16 µM
[6] = second compound 0.0316 µM, first compound 10 µM
[7] = second compound 0.1 µM, first compound 0.0316 µM
[8] = second compound 0.1 µM, first compound 0.1 µM
[9] = second compound 0.1 µM, first compound 0.316 µM
[10] = second compound 0.1 µM, first compound 1 µM
[11] = second compound 0.1 µM, first compound 3.16 µM
[12] = second compound 0.1 µM, first compound 10 µM
[13] = second compound 0.316 µM, first compound 0.0316 µM
[14] = second compound 0.316 µM, first compound 0.1 µM
[15] = second compound 0.316 µM, first compound 0.316 µM
[16] = second compound 0.316 µM, first compound 1 µM
[17] = second compound 0.316 µM, first compound 3.16 µM
[18] = second compound 0.316 µM, first compound 10 µM
[19] = second compound 1 µM, first compound 0.0316 µM
[20] = second compound 1 µM, first compound 0.1 µM
[21] = second compound 1 µM, first compound 0.316 µM
[22] = second compound 1 µM, first compound 1 µM
[23] = second compound 1 µM, first compound 3.16 µM
[24] = second compound 1 µM, first compound 10 µM
[25] = second compound 3.16 µM, first compound 0.0316 µM
[26] = second compound 3.16 µM, first compound 0.1 µM
[27] = second compound 3.16 µM, first compound 0.316 µM
[28] = second compound 3.16 µM, first compound 1 µM
[29] = second compound 3.16 µM, first compound 3.16 µM
[30] = second compound 3.16 µM, first compound 10 µM
[31] = second compound 10 µM, first compound 0.0316 µM
[32] = second compound 10 µM, first compound 0.1 µM
[33] = second compound 10 µM, first compound 0.316 µM
[34] = second compound 10 µM, first compound 1 µM
[35] = second compound 10 µM, first compound 3.16 µM
[36] = second compound 10 µM, first compound 10 µM
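Also: luminescence signal used as a surrogate for viable cells; spheroids exposed to drugs for seven days before readout.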

For CC1COCCN1c1cc(-c2ccnn2C)c2ccnc(-c3ccn[nH]3)c2n1 (stereo unspecified) + COC1C(OC(N)=O)C(O)C(Oc2ccc3c(O)c(NC(=O)c4ccc(O)c(CC=C(C)C)c4)c(=O)oc3c2C)OC1(C)C, the IC50 (second compound 0.0316 µM) was 0.221 µM, the IC50 (second compound 0.1 µM) was 0.648 µM and the IC50 (second compound 0.316 µM) was 0.314 µM. The IC50 (second compound 1 µM) was 0.409 µM, the IC50 (second compound 3.16 µM) was 0.666 µM and the IC50 (second compound 10 µM) was greater than 10 µM. It also gave a viability, T/C [1] of 77.2%, a viability, T/C [2] of 70.2% and a viability, T/C [3] of 40.4%. For the same compound, the viability, T/C [4] was 47%, the viability, T/C [5] was 24.8% and the viability, T/C [6] was 51.3%. The viability, T/C [7] was 83.3%, the viability, T/C [8] was 81.5% and the viability, T/C [9] was 64.1%. It also gave a viability, T/C [10] of 42.5%, a viability, T/C [11] of 24.7% and a viability, T/C [12] of 52.9%. For the same compound, the viability, T/C [13] was 88.1%, the viability, T/C [14] was 88.1% and the viability, T/C [15] was 49.7%. For the same compound, the viability, T/C [16] was 46.3%, the viability, T/C [17] was 33% and the viability, T/C [18] was 66.8%. The viability, T/C [19] was 96.5%, the viability, T/C [20] was 75% and the viability, T/C [21] was 54.3%. It also gave a viability, T/C [22] of 39%, a viability, T/C [23] of 33.1% and a viability, T/C [24] of 56.1%. For the same compound, the viability, T/C [25] was 99.5%, the viability, T/C [26] was 88.9% and the viability, T/C [27] was 66.1%. It also gave a viability, T/C [28] of 31.5%, a viability, T/C [29] of 27.4% and a viability, T/C [30] of 64.9%. The viability, T/C [31] was 87%, the viability, T/C [32] was 64.7% and the viability, T/C [33] was 44%. For the same compound, the viability, T/C [34] was 54%, the viability, T/C [35] was 32.2% and the viability, T/C [36] was 70.3%.

For CCc1cc2c(N3CCc4c(cc(Cn5ccnc5)cc4-c4cn(C)nc4C(F)(F)F)C3=O)ccnc2c(OC)n1 + COC1C(OC(N)=O)C(O)C(Oc2ccc3c(O)c(NC(=O)c4ccc(O)c(CC=C(C)C)c4)c(=O)oc3c2C)OC1(C)C, the IC50 (second compound 0.0316 µM) was greater than 10 µM, the IC50 (second compound 0.1 µM) was greater than 10 µM and the IC50 (second compound 0.316 µM) was greater than 10 µM. The IC50 (second compound 1 µM) was greater than 10 µM, the IC50 (second compound 3.16 µM) was greater than 10 µM and the IC50 (second compound 10 µM) was greater than 10 µM. The viability, T/C [1] was 101%, the viability, T/C [2] was 107% and the viability, T/C [3] was 83%. The viability, T/C [4] was 86%, the viability, T/C [5] was 93.8% and the viability, T/C [6] was 57%. For the same compound, the viability, T/C [7] was 108%, the viability, T/C [8] was 106% and the viability, T/C [9] was 94.6%. It also gave a viability, T/C [10] of 98.5%, a viability, T/C [11] of 98.4% and a viability, T/C [12] of 52.3%. For the same compound, the viability, T/C [13] was 97%, the viability, T/C [14] was 104% and the viability, T/C [15] was 103%. The viability, T/C [16] was 95.7%, the viability, T/C [17] was 61.9% and the viability, T/C [18] was 52.1%. For the same compound, the viability, T/C [19] was 113%, the viability, T/C [20] was 83.3% and the viability, T/C [21] was 71.3%. It also gave a viability, T/C [22] of 93.8%, a viability, T/C [23] of 69% and a viability, T/C [24] of 52.3%. The viability, T/C [25] was 106%, the viability, T/C [26] was 99% and the viability, T/C [27] was 91.9%. For the same compound, the viability, T/C [28] was 76.5%, the viability, T/C [29] was 70% and the viability, T/C [30] was 64.8%. It also gave a viability, T/C [31] of 110%, a viability, T/C [32] of 89.5% and a viability, T/C [33] of 93.2%. For the same compound, the viability, T/C [34] was 92.1%, the viability, T/C [35] was 55.6% and the viability, T/C [36] was 58.6%.

With COc1ccc([C@@H](O)c2cc(-c3ncnc4cc(N5CCOCC5)ccc34)c(F)cc2Cl)nn1 + COC1C(OC(N)=O)C(O)C(Oc2ccc3c(O)c(NC(=O)c4ccc(O)c(CC=C(C)C)c4)c(=O)oc3c2C)OC1(C)C the IC50 (second compound 0.0316 µM) was greater than 10 µM, the IC50 (second compound 0.1 µM) was greater than 10 µM and the IC50 (second compound 0.316 µM) was greater than 10 µM. The IC50 (second compound 1 µM) was greater than 10 µM, the IC50 (second compound 3.16 µM) was greater than 10 µM and the IC50 (second compound 10 µM) was greater than 10 µM. The viability, T/C [1] was 116%, the viability, T/C [2] was 115% and the viability, T/C [3] was 110%. The viability, T/C [4] was 92%, the viability, T/C [5] was 105% and the viability, T/C [6] was 87.7%. It also gave a viability, T/C [7] of 109%, a viability, T/C [8] of 103% and a viability, T/C [9] of 95.3%. For the same compound, the viability, T/C [10] was 97.5%, the viability, T/C [11] was 94.4% and the viability, T/C [12] was 98.5%. The viability, T/C [13] was 107%, the viability, T/C [14] was 103% and the viability, T/C [15] was 92.5%. The viability, T/C [16] was 96.8%, the viability, T/C [17] was 115% and the viability, T/C [18] was 81.7%. The viability, T/C [19] was 98%, the viability, T/C [20] was 106% and the viability, T/C [21] was 109%. For the same compound, the viability, T/C [22] was 92.4%, the viability, T/C [23] was 97.2% and the viability, T/C [24] was 77.4%. It also gave a viability, T/C [25] of 106%, a viability, T/C [26] of 108% and a viability, T/C [27] of 109%. It also gave a viability, T/C [28] of 105%, a viability, T/C [29] of 93.3% and a viability, T/C [30] of 83.8%. It also gave a viability, T/C [31] of 111%, a viability, T/C [32] of 103% and a viability, T/C [33] of 118%. It also gave a viability, T/C [34] of 83.6%, a viability, T/C [35] of 115% and a viability, T/C [36] of 114%.
